Data: article PMC12488667, “Orodispersible films containing chestnut shell phenolics for buccal delivery: a preclinical approach for oral mucositis prevention” (Frontiers in Medical Technology, 2025)
Marks after values point to notes of the source that are not given here.

Columns and labels:
[1] = system: TR146 cells; assay: In vitro permeation, buccal model; assay type: in vitro ADME, human
Description: The in vitro permeability of the bioactive compounds present in OFs (n = 9) was determined using a co-culture model composed of TR146 ([31]). The extract and the CS-loaded OFs were added to the apical side of the model as a stock solution. […] The Transepithelial Electrical Resistance (TEER) of the model was evaluated before, during, and at the end of the permeability assay using an EVOM Epithelial Volthometer equipped with a chopstick electrode (World Precision Instruments, Sarasota, FL, USA).
(§1) The identification and quantification of the phenolic compounds present in the extract and the OFs, as well as the compounds that permeated from the OFs through in vitro and ex vivo assays, were conducted using an LC-ESI-LTQ-Orbitrap-HRMS equipment with an Accela chromatograph (Thermo Scientific, Hemel Hempstead, UK), a photodiode array detector, a quaternary pump, and a temperature-controlled autosampler coupled to a high-resolution LTQ Orbitrap Velos mass spectrometer (Thermo Scientific, Hemel Hempstead, UK) with an ESI source in negative mode ([33], [34]). The system was controlled using the Xcalibur v3.0 software (ThermoFisher Scientific, Hemel Hempstead, UK). Elution was performed on an Acquity™ UPLC® BEH C18 Column (2.1 × 100 mm, i.d., 1.7 µm particle size, Waters Corporation, Wexford, Ireland) maintained at 30°C.
(§2) Gradient elution was performed with water (A) and acetonitrile (B), both with 0.1% formic acid, with a flow rate and injection volume of 450 µl/min and 5 µl, respectively. The solvent gradient (v/v) of B [t (min), %B] was set as follows: (0, 0), (2, 0), (4, 30), (8, 100), (10, 100), (11, 0), and (14, 0). The samples were analyzed in the full scan mode at a resolving power of 30,000 and m/z 600. Data-dependent MS/MS events were acquired at a resolution of 15,000. Most intense ions were detected via the FTMS mode-triggered data-dependent acquisition mode. Ions that were not sufficiently intense for a data-dependent scan were explored in MSn mode. Precursors were fragmented by collision-induced dissociation using a C-trap with a normalized collision energy (35 V) and an activation time of 10 ms. […] Compounds whose theoretical [M–H]^− values exceeded the MS¹ acquisition range (m/z 100–600) were annotated based on characteristic MSⁿ fragment ions detected within the scan window.

[2] = Ex vivo permeation, Franz cells; assay type: in vitro ADME, porcine
Description: Porcine buccal mucosa was used to evaluate the buccal permeation of the phenolic compounds in the extract and the CS-loaded OFs (n = 9). The porcine buccal mucosa was purchased in a local butcher shop, not requiring ethical approval. A Franz cell assembly (9 mm clear jacketed Franz cell with a flat ground joint, 5 ml receptor volume, and permeation area of 0.785 cm^2; PermeGear, Inc., USA) was used. This experiment followed the methodology described by Rodrigues et al. ([32]). In the Franz apparatus, the porcine buccal mucosa was positioned with the cheek side facing the donor chamber, which contained 500 µl (1,000 μg/ml) of the CS extract or the CS-loaded OFs (two square films (2 × 2 cm) with […] of thickness were dissolved in 4 ml of artificial saliva; donor concentration was normalized to ensure equivalence between the extract solution and the film formulation). The receptor chamber was filled with 5 ml PBS, maintained at 37°C, and stirred continuously at 150 rpm. The volume was maintained through the experiments.
as §1, §2
Quantitative analysis was performed by using a validated chromatographic method ([38]).

SMILES	Quantification of permeated compounds ([1]; CS extract)	Quantification of permeated compounds ([1]; CS-loaded OFs)	Permeation (%) ([1]; from CS extract, 15 min)	Permeation (%) ([1]; from CS extract, 30 min)	Permeation (%) ([1]; from CS extract, 45 min)	Permeation (%) ([1]; from CS extract, 60 min)	Permeation (%) ([1]; from CS extract, 90 min)	Permeation (%) ([1]; from CS extract, 120 min)	Permeation (%) ([1]; from CS extract, 180 min)	Permeation (%) ([1]; from CS extract, 240 min)	Quantification of permeated compounds ([2]; CS extract)	Quantification of permeated compounds ([2]; CS-loaded OFs)	Permeation (%) ([2]; from CS extract, 15 min)	Permeation (%) ([2]; from CS extract, 30 min)	Permeation (%) ([1]; from CS-loaded OFs, 15 min)	Permeation (%) ([1]; from CS-loaded OFs, 45 min)	Permeation (%) ([1]; from CS-loaded OFs, 60 min)	Permeation (%) ([1]; from CS-loaded OFs, 90 min)	Permeation (%) ([1]; from CS-loaded OFs, 120 min)	Permeation (%) ([1]; from CS-loaded OFs, 180 min)	further results
O=C(O)c1cccc(O)c1 [3-Hydroxybenzoic acid]	1.52 ± 0.02^a mg/ml	0.36 ± 0.03^a mg/g film	13.57 ± 0.05^a %	13.06 ± 0.03^a %	14.09 ± 0.01^a %	17.29 ± 0.01^a %	16.17 ± 0.06^a %	29.12 ± 0.19^b %	16.86 ± 0.23^a %	24.23 ± 0.45^b %	1.18 ± 0.1^b mg/ml	0.09 ± 0.02^a mg/g film	5.91 ± 0.06^a %	4.76 ± 0.02^a %	–	–	–	–	–	–	Permeation (%) ([2]; from CS-loaded OFs, 15 min): 45.86 ± 0.03^b %; Permeation (%) ([2]; from CS-loaded OFs, 30 min): 105.28 ± 3.37^b %
COc1cc(CC(=O)O)ccc1O [Homovanillic acid]	0.58 ± 0.03^a mg/ml	0.41 ± 0.01^a mg/g film	93.51 ± 2.52^b %	92.34 ± 1.55^b %	92.13 ± 1.08^b %	93.10 ± 0.94^b %	94.47 ± 3.00^b %	90.93 ± 2.74^b %	91.20 ± 1.73^b %	87.20 ± 2.06^a %	2.03 ± 0.03^a mg/ml	1.67 ± 0.03^a mg/g film	99.88 ± 2.79^a %	100.53 ± 3.72^a %	106.01 ± 1.46^a %	105.41 ± 0.99^a %	103.62 ± 2.72^a %	105.25 ± 2.83^a %	109.09 ± 1.97^a %	106.07 ± 2.67^a %	Permeation (%) ([1]; from CS extract, 240 min, listed as homovanillic acid): 87.20%; Permeation (%) ([1]; from CS-loaded OFs, 30 min): 104.89 ± 1.08^a %; Permeation (%) ([1]; from CS-loaded OFs, 240 min): 110.05 ± 3.61^a %; Permeation (%) ([1]; from CS-loaded OFs, 240 min, listed as homovanillic acid): 110.05%
O=C(O)C[C@H](C(=O)O)[C@@H](O)C(=O)O [Isocitric acid]	222.23 ± 6.57^a mg/ml	306.36 ± 13.65^b mg/g film	0.04 ± 0.01^a %	0.12 ± 0.03^a %	0.15 ± 0.01^a %	0.15 ± 0.01^a %	0.24 ± 0.03^a %	0.33 ± 0.02^a^,^b %	0.54 ± 0.04^a^,^b %	0.70 ± 0.01^b %	2.20 ± 0.05^a mg/ml	2.21 ± 0.16^a mg/g film	15.13 ± 0.29^a %	13.91 ± 1.51^a %	0.15 ± 0.001^a %	0.50 ± 0.06^a %	0.62 ± 0.02^a %	1.04 ± 0.01^b %	1.40 ± 0.04^b %	2.77 ± 0.01^b %	Permeation (%) ([1]; from CS-loaded OFs, 30 min): 0.29 ± 0.05^a %; Permeation (%) ([1]; from CS-loaded OFs, 240 min): 3.38 ± 0.06^b %; Permeation (%) ([2]; from CS-loaded OFs, 15 min): 19.05 ± 1.12^a %; Permeation (%) ([2]; from CS-loaded OFs, 30 min): 19.02 ± 0.90^a %
O=C(O)c1ccc(O)c(O)c1 [Protocatechuic acid]	0.53 ± 0.03^a mg/ml	0.41 ± 0.02^a mg/g film	39.32 ± 0.96^b %	43.86 ± 1.62^b %	42.03 ± 0.79^b %	38.29 ± 0.86^b %	37.52 ± 0.97^b %	25.84 ± 1.03^a %	40.40 ± 0.82^c %	32.88 ± 0.87^b %	0.97 ± 0.03^b mg/ml	0.13 ± 0.01^a mg/g film	19.05 ± 1.63^a %	19.06 ± 0.61^a %	89.42 ± 3.08^b %	85.88 ± 2.01^b %	94.08 ± 3.56^b %	96.88 ± 1.43^b %	106.06 ± 0.78^b %	84.76 ± 2.51^b %	Permeation (%) ([1]; from CS-loaded OFs, 240 min): 75.80 ± 0.91^a %; Permeation (%) ([1]; from CS-loaded OFs, 240 min, listed as protocatechuic acid): 75.80%
O=C(O)CCC(=O)O [Succinic acid]	1.60 ± 0.03^a mg/ml	0.82 ± 0.01^a mg/g film	20.51 ± 1.62^b %	14.86 ± 2.71^a %	16.09 ± 1.85^a %	14.96 ± 0.46^a %	19.54 ± 0.94^b %	20.71 ± 1.67^b %	21.62 ± 0.61^b %	23.76 ± 1.68^b %	1.26 ± 0.01^b mg/ml	0.38 ± 0.01^a mg/g film	60.67 ± 0.21^b %	70.72 ± 3.61^b %	44.20 ± 2.19^a %	56.70 ± 1.23^b %	57.45 ± 0.78^b %	79.12 ± 4.41^c %	88.23 ± 1.26^c %	103.25 ± 1.42^d %	Permeation (%) ([1]; from CS-loaded OFs, 30 min): 64.44 ± 1.03^c %; Permeation (%) ([1]; from CS-loaded OFs, 240 min): 100.86 ± 1.75^d %; Permeation (%) ([1]; from CS-loaded OFs, 240 min, listed as succinic acid): 100.86%; Permeation (%) ([2]; from CS-loaded OFs, 15 min): 14.00 ± 0.63^a %; Permeation (%) ([2]; from CS-loaded OFs, 30 min): 16.11 ± 0.72^a %
